Source: PubChem BioAssay (NCI)
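Cultured in 96-well plates, cells were exposed to test compound for 48 hours across five concentrations. GI50 is the concentration that inhibits growth by half. TGI denotes the concentration required for complete inhibition of growth.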

How the values were obtained:
Assay in all cases: DTP human tumour cell line panel, 48 h
SK-MEL-2 melanoma = tested on: SK-MEL-2 melanoma
IGROV1 ovarian = tested on: IGROV1 ovarian
OVCAR-8 ovarian = tested on: OVCAR-8 ovarian
KM12 colon = tested on: KM12 colon
HCT-15 colon = tested on: HCT-15 colon
HOP-92 NSCLC = tested on: HOP-92 NSCLC
HCC-2998 colon = tested on: HCC-2998 colon
HOP-62 NSCLC = tested on: HOP-62 NSCLC
UO-31 renal = tested on: UO-31 renal
HL-60(TB) leukemia = tested on: HL-60(TB) leukemia
NCI/ADR-RES ovarian = tested on: NCI/ADR-RES ovarian
U251 CNS = tested on: U251 CNS
K-562 leukemia = tested on: K-562 leukemia
BT-549 breast = tested on: BT-549 breast
HCT-116 colon = tested on: HCT-116 colon
HT29 colon = tested on: HT29 colon
UACC-257 melanoma = tested on: UACC-257 melanoma
A549 NSCLC = tested on: A549 NSCLC
PC-3 prostate = tested on: PC-3 prostate
RPMI-8226 leukemia = tested on: RPMI-8226 leukemia
NCI-H226 lung = tested on: NCI-H226 lung
HS 578T breast = tested on: HS 578T breast
OVCAR-4 ovarian = tested on: OVCAR-4 ovarian
SN12C renal = tested on: SN12C renal
EKVX NSCLC = tested on: EKVX NSCLC
MCF7 breast = tested on: MCF7 breast
SF-268 CNS = tested on: SF-268 CNS
MDA-MB-435 = tested on: MDA-MB-435
SF-539 CNS = tested on: SF-539 CNS
T-47D breast = tested on: T-47D breast
NCI-H460 lung = tested on: NCI-H460 lung
UACC-62 melanoma = tested on: UACC-62 melanoma
OVCAR-5 ovarian = tested on: OVCAR-5 ovarian
SNB-19 CNS = tested on: SNB-19 CNS
MOLT-4 leukemia = tested on: MOLT-4 leukemia
SW-620 colon = tested on: SW-620 colon
CCRF-CEM leukemia = tested on: CCRF-CEM leukemia
CAKI-1 renal = tested on: CAKI-1 renal
NCI-H23 lung = tested on: NCI-H23 lung
LOX IMVI melanoma = tested on: LOX IMVI melanoma
RXF 393 renal = tested on: RXF 393 renal
SK-MEL-28 melanoma = tested on: SK-MEL-28 melanoma
ACHN renal = tested on: ACHN renal
MALME-3M melanoma = tested on: MALME-3M melanoma
DU-145 prostate = tested on: DU-145 prostate
M14 melanoma = tested on: M14 melanoma
SK-MEL-5 melanoma = tested on: SK-MEL-5 melanoma
786-0 renal = tested on: 786-0 renal
SR leukemia = tested on: SR leukemia
MDA-MB-231 breast = tested on: MDA-MB-231 breast
A498 renal = tested on: A498 renal
TK-10 renal = tested on: TK-10 renal
SK-OV-3 ovarian = tested on: SK-OV-3 ovarian
SNB-75 CNS = tested on: SNB-75 CNS
COLO 205 colon = tested on: COLO 205 colon
NCI-H522 lung = tested on: NCI-H522 lung
SF-295 CNS = tested on: SF-295 CNS
OVCAR-3 ovarian = tested on: OVCAR-3 ovarian

COCCn1cc(-c2nc(-c3cc4cccnc4[nH]3)cs2)c2cc(OC)ccc21
GI50 (SK-MEL-2 melanoma): 3.05 µM
TGI (SK-MEL-2 melanoma): 12.8 µM
GI50 (IGROV1 ovarian): 810 nM
TGI (IGROV1 ovarian): > 34.5 µM
GI50 (OVCAR-8 ovarian): 3.56 µM
TGI (OVCAR-8 ovarian): 45.3 µM
GI50 (KM12 colon): 203 nM
TGI (KM12 colon): 9.38 µM
GI50 (HCT-15 colon): 2260 nM
TGI (HCT-15 colon): 21.5 µM
GI50 (HOP-92 NSCLC): 387 nM
TGI (HOP-92 NSCLC): 2460 nM
GI50 (HCC-2998 colon): 3.68 µM
TGI (HCC-2998 colon): 97.4 µM
GI50 (HOP-62 NSCLC): 2200 nM
TGI (HOP-62 NSCLC): 9.36 µM
GI50 (UO-31 renal): 1840 nM
TGI (UO-31 renal): 11 µM
GI50 (HL-60(TB) leukemia): 2950 nM
TGI (HL-60(TB) leukemia): 13.3 µM
GI50 (NCI/ADR-RES ovarian): 2950 nM
TGI (NCI/ADR-RES ovarian): 23.8 µM
GI50 (U251 CNS): 3.6 µM
TGI (U251 CNS): > 59.3 µM
GI50 (K-562 leukemia): 3.48 µM
TGI (K-562 leukemia): > 27.3 µM
GI50 (BT-549 breast): 1800 nM
TGI (BT-549 breast): 7.66 µM
GI50 (HCT-116 colon): 3.49 µM
TGI (HCT-116 colon): 16 µM
GI50 (HT29 colon): 3.71 µM
TGI (HT29 colon): > 81.2 µM
GI50 (UACC-257 melanoma): 4.26 µM
TGI (UACC-257 melanoma): 9.81 µM
GI50 (A549 NSCLC): 3.79 µM
TGI (A549 NSCLC): > 100 µM
GI50 (PC-3 prostate): 3.13 µM
TGI (PC-3 prostate): 13.3 µM
GI50 (RPMI-8226 leukemia): 3.94 µM
TGI (RPMI-8226 leukemia): > 36.2 µM
GI50 (NCI-H226 lung): 1570 nM
TGI (NCI-H226 lung): 27.6 µM
GI50 (HS 578T breast): 1990 nM
TGI (HS 578T breast): 6.78 µM
GI50 (OVCAR-4 ovarian): 27.8 nM
TGI (OVCAR-4 ovarian): > 30.8 µM
GI50 (SN12C renal): 4.64 µM
TGI (SN12C renal): > 100 µM
GI50 (EKVX NSCLC): 82.7 nM
TGI (EKVX NSCLC): 4.43 µM
GI50 (MCF7 breast): 43.3 nM
TGI (MCF7 breast): 2670 nM
GI50 (SF-268 CNS): 3.82 µM
TGI (SF-268 CNS): > 100 µM
GI50 (MDA-MB-435): 5.27 µM
TGI (MDA-MB-435): > 100 µM
GI50 (SF-539 CNS): 3.39 µM
TGI (SF-539 CNS): 42 µM
GI50 (T-47D breast): 33 nM
TGI (T-47D breast): 992 nM
GI50 (NCI-H460 lung): 1100 nM
TGI (NCI-H460 lung): 12.9 µM
GI50 (UACC-62 melanoma): 4.22 µM
TGI (UACC-62 melanoma): 31.3 µM
GI50 (OVCAR-5 ovarian): 524 nM
TGI (OVCAR-5 ovarian): > 96.4 µM
GI50 (SNB-19 CNS): 6.48 µM
TGI (SNB-19 CNS): > 100 µM
GI50 (MOLT-4 leukemia): 4.24 µM
TGI (MOLT-4 leukemia): > 46.7 µM
GI50 (SW-620 colon): 4.04 µM
TGI (SW-620 colon): > 100 µM
GI50 (CCRF-CEM leukemia): 4.54 µM
TGI (CCRF-CEM leukemia): > 100 µM
GI50 (CAKI-1 renal): 3.01 µM
TGI (CAKI-1 renal): > 82.4 µM
GI50 (NCI-H23 lung): 1500 nM
TGI (NCI-H23 lung): 10.8 µM
GI50 (LOX IMVI melanoma): 3.35 µM
TGI (LOX IMVI melanoma): 35.1 µM
GI50 (RXF 393 renal): 950 nM
TGI (RXF 393 renal): 5.41 µM
GI50 (SK-MEL-28 melanoma): 5.21 µM
TGI (SK-MEL-28 melanoma): > 100 µM
GI50 (ACHN renal): 2610 nM
TGI (ACHN renal): > 100 µM
GI50 (MALME-3M melanoma): 7.99 µM
TGI (MALME-3M melanoma): > 80.6 µM
GI50 (DU-145 prostate): 3.96 µM
TGI (DU-145 prostate): 56.1 µM
GI50 (M14 melanoma): 4.8 µM
TGI (M14 melanoma): > 100 µM
GI50 (SK-MEL-5 melanoma): 4.47 µM
TGI (SK-MEL-5 melanoma): 21.4 µM
GI50 (786-0 renal): 3.04 µM
TGI (786-0 renal): 20.9 µM
GI50 (SR leukemia): 1210 nM
TGI (SR leukemia): > 29.7 µM
GI50 (MDA-MB-231 breast): 1760 nM
TGI (MDA-MB-231 breast): > 79.9 µM
GI50 (A498 renal): 1860 nM
TGI (A498 renal): 6.18 µM
GI50 (TK-10 renal): 1070 nM
TGI (TK-10 renal): 10.7 µM
GI50 (SK-OV-3 ovarian): 3.04 µM
TGI (SK-OV-3 ovarian): 11.6 µM
GI50 (SNB-75 CNS): 1220 nM
TGI (SNB-75 CNS): 5.83 µM
GI50 (COLO 205 colon): 4.01 µM
TGI (COLO 205 colon): 24.7 µM
GI50 (NCI-H522 lung): 2990 nM
TGI (NCI-H522 lung): 21 µM
GI50 (SF-295 CNS): 2240 nM
TGI (SF-295 CNS): 6.54 µM
GI50 (OVCAR-3 ovarian): 4.28 µM
TGI (OVCAR-3 ovarian): 21.7 µM
